Assay [1] has as its system HER2. The conditions noted are these: report by Smith-Jones and co-workers (36); cited from earlier work.
The next assay has as its system SKOV-3 cells. In words: In vitro uptake assay in SKOV-3 cells (blocking, siRNA, drug treatment, specific activity). As to conditions: NVP-AUY922 for 24 h. The class given is cell-based, human. The protocol:
For siRNA-mediated HER2 knockdown, SKOV-3 cells were transfected with 25 nM scramble control (SCR; Dharmacon, Lafayette, Colo., ON-TARGETplus Non-targeting Pool, Cat. Nr: D-001810-10-05) or HER2-targeting siRNA (Invitrogen ERBB2 Silencer® Select Validated siRNA; Cat. Nr: 4457298) by reverse wet transfection with Lipofectamine RNAiMAX (Invitrogen) according to manufacturer's instructions. 3×10^5 cells were seeded in 12-well plates 48 h prior to uptake experiment. Target knockdown was verified by western blotting on cells that were transfected in parallel.
For all uptake studies in response to drug treatment, 2.5×10^5 SKOV-3 cells were seeded in complete medium 48 h prior to uptake experiments.
For baseline uptake in HER2 positive or negative lineages, 3×10^5 cells were seeded in complete media in 12-well plates (Corning, Tewksbury Mass.) and allowed to recover overnight. Cells were washed twice with serum-free medium and pulsed with 370 KBq in 500 μL serum-free medium for one h. For blocking studies, cells were co-incubated with tracer and 0.5 mg/mL cold unlabeled [^19F]GE-226[SEQ ID NO 1].
Cells were washed with PBS, trypsinized, neutralized with complete medium and centrifuged. The pellet was washed three times with PBS and lysed in 120 μL RIPA buffer (Sigma-Aldrich). The radioactivity of 100 μL lysate was counted on a Packard Cobra II gamma counter (Perkin Elmer). Radioactivity was normalized to applied radioactivity and protein content, which was determined for each sample by BCA assay (Pierce, Rockford, Ill.).

Assay [2] concerns HER2. In words: HER2 expression in SKOV-3 tumors after NVP-AUY922. The class given is in vivo, mice. The conditions noted are these: 3 doses of 50 mg/kg NVP-AUY922 versus vehicle. How it is done: For blocking studies, SKOV-3 xenograft bearing mice were administered 500 μg (˜25 mg/kg) cold [^19F]GE-226[SEQ ID NO 1] intravenously (i.v.) through the tail vain 20 minutes before administration of radiotracer. […] To investigate response to HSP90 inhibition, SKOV-3 xenograft-bearing mice were treated with 50 mg/kg NVP-AUY922 or equivalent volume of vehicle (˜5 μL/g body weight; 10% DMSO and 5% Tween-20 in PBS) q.d. i.p. for three days. 24 h after the last treatment, animals were used for PET imaging.
Excised and snap frozen tumor tissue samples were homogenized in RIPA lysis buffer (Sigma-Aldrich) with the PreCellys 24 homogenizer and CK14 beads-containing tubes (two cycles of 25 seconds at 6500 rpm). HER2 expression was determined by ELISA (Calbiochem, Darmstadt, Germany, c-ErbB2/c-Neu Rapid Format ELISA Ki, Cat. Nr: QIA10-1EA) according to manufacturer's instructions.

The next assay concerns SKOV-3 xenografts. The experiment in a line: PET-CT imaging and kinetic modeling, SKOV-3 xenografts. The class given is in vivo, mice. How it is done:
[…] […] To investigate response to HSP90 inhibition, SKOV-3 xenograft-bearing mice were treated with 50 mg/kg NVP-AUY922 or equivalent volume of vehicle (˜5 μL/g body weight; 10% DMSO and 5% Tween-20 in PBS) q.d. i.p. for three days. 24 h after the last treatment, animals were used for PET imaging.
Mice were anesthetized through isoflurane inhalation and scanned on a dedicated small animal PET-CT scanner (Siemens Multimodality Inveon, Erlangen, Germany). Low dose CT scans were first acquired (80 kVp, 0.5 mA, 220 degree rotation, 600 ms per degree exposure time, 80 μm reconstruction pixel size) for PET attenuation correction and to obtain an anatomical reference. PET images were acquired following a bolus i.v. injection of approximately 3.7 MBq [^18F]GE-226 in the tail vein. Dynamic emission scans were acquired in list mode format over 60 minutes. The acquired data were sorted into 0.5-mm sinogram bins and 19 time frames for image reconstruction by filtered back projection (4×15 seconds and 4×60 seconds followed by 11×300 seconds). The Siemens Inveon Research Workplace software was used for visualization of radiotracer uptake. 30 to 60-minute cumulative images of the dynamic data were employed to define 3-dimensional (3D) regions of interest (ROI). Arterial input function was estimated by drawing ROIs over the center of the heart cavity using 0.25 to 2 minutes of cumulative images. The count densities were averaged for all ROIs at each time point to obtain time versus radioactivity curves (TAC). Tumor TACs were normalized to injected dose measured by a VDC-304 dose calibrator (Veenstra Instruments, Joure, Netherlands) and normalized uptake was expressed as percentage injected dose per mL tissue (NUV; % ID/mL). Normalized uptake of radiotracer at 60 minutes (NUV60) was used for comparisons. For qualitative image visualization, cumulative images of the dynamic data (30 to 60 min) were also iteratively reconstructed (OSEM3D).
Kinetic analysis of PET data was performed applying a standard two-tissue irreversible compartmental model to fit each tumor TAC with the corresponding image-derived plasma TAC as input function (IF) to estimate K1 (mL/cm^3/min), k2, (1/min) and k3 (1/min) and the blood vascular component Vb (mL blood/mL tissue; unitless). The irreversible uptake rate Ki (mL/cm^3/min) was computed as K1×k3/(k2+k3). To estimate the kinetic parameters the measured tumor TAC (tTAC) was modeled as tTAC(t)=(1−Vb)h(t)⊗IF(t)+VbIF(t) with h(t) indicating the unknown tissue impulse function and ⊗ the convolution operator. The parameter vector p=[K1, k2, k3, Vb] was estimated with the standard Weighted Non-Linear Least Squares (WNLLS) by minimizing the Weighted Residual Sum of Squares (WRSS) function

The test system of assay [3] is HER2. The experiment in a line: Western blot of HER2 protein expression in drug-treated SKOV-3 cells. The class given is cell-based, human. The conditions noted are these: NVP-AUY922 for 24 h, compared to untreated controls. The protocol: For all uptake studies in response to drug treatment, 2.5×10^5 SKOV-3 cells were seeded in complete medium 48 h prior to uptake experiments. […] Cells were lysed in RIPA buffer containing protease and phosphatase inhibitors (from Sigma-Aldrich). Equal amounts of protein (20 μg) were resolved on 4-15% mini-protean TGX gels (Biorad, Hercules, Calif.) and transferred to PVDF membranes (Trans-Blot Turbo Transfer Packs, Biorad). Membranes were blocked for 1 h in 5% milk in Tris-buffered saline containing 0.1% v/v tween (TBST, Cell Signaling, Danvers, Mass.) and incubated with antibodies against HER2 (Cell Signal, Cat. Nr: 2165 for visualization of p95HER2 and full-length HER2 bands and Cat. Nr: 4290 for blots where only full-length HER2 is shown), EGFR (Cell Signal, Cat. Nr: 4267) or (3-actin (Abcam, Cambridge, United Kingdom, Cat. Nr: ab6276) overnight at 4° C. Secondary HRP-conjugated mouse and rabbit antibodies (Santa Cruz Biotechnology, Dallas, Tex.) were applied for one h at room temperature. Signals were visualized using Amersham ECL™ Western Blotting Detection Reagent (GE Healthcare) and Amersham Hyper-film (GE Healthcare).
On the technique in general: In western blotting, separated proteins are transferred to a membrane and probed.

For another assay, the system named is A431 tumors. The experiment in a line: Fluorescent GE-226 localization versus DAKO HercepTest, A431 tumors. The class given is in vivo, mice. As to conditions: 15 mg/kg i.v., tumors excised two h post injection; HER2 negative. The protocol:
(§1) The bilateral A431/NCI-N87 model was established by s.c. injection of A431 (1×10^7 cells) and NCI-N87 cells (2×10^6 cells) in 100 μL PBS mixed 1:1 with Matrigel™ in the lower flanks of 4-6 week old male CD-1 nude mice (Charles River Laboratories, Wilmington, Mass.). Tumor volumes were monitored frequently as described above and when they reached 50-100 mm^3 (approximately 3-4 weeks), mice were administered a mixture of Hoechst (˜20 mg/kg) and fluorescein-conjugated-GE226[SEQ ID NO 1] (˜15 mg/kg) in 100 μL PBS i.v. through the tail vein. The tumors were excised 120 minutes post injection, immediately fixed in formalin and embedded in paraffin. Sections were sliced and stored in the dark at −80° C. Immunofluorescent images were acquired at 400× magnification. Adjacent tumor sections were immunohistochemically stained with HercepTest™.
(§2) HER2 protein expression in excised tumors was assessed using the HercepTest™ (Dako, Ely, United Kingdom, Cat. Nr: K5204) according to manufacturer's instructions.
(§3) To examine cellular localization, GE-226[SEQ ID NO 1] was labeled with fluorescein and compared localization and fluorescent intensity in tumor sections with FDA approved DAKO HercepTest™. In contrast to PET experiments, normalization to injected dose is not possible with fluorescent compounds. To eliminate inter-subject variability, experiments were performed in bilateral tumor-bearing mice. […]

Another assay relates to NCI-N87 tumors. In words: Fluorescent GE-226 localization versus DAKO HercepTest, NCI-N87 tumors. The class given is in vivo, mice. As to conditions: 15 mg/kg i.v., tumors excised two h post injection. How it is done:
as §1, §2, §3

Entries after “also recorded” stand apart in the source; their conditions may differ.

In the case of `C=CCNC1=C2C[C@@H](C)C[C@H](OC)[C@H](O)[C@@H](C)/C=C(\C)[C@H](OC(N)=O)[C@@H](OC)/C=C\C=C(/C)C(=O)NC(=CC1=O)C2=O` [17-allylaminogeldanamycin], the “effect on HER2” value in the assay with HER2 [1] is reported as “degrades HER2”.
Turning to `CCNC(=O)c1noc(-c2cc(C(C)C)c(O)cc2O)c1-c1ccc(CN2CCOCC2)cc1` [NVP-AUY922, reference compound], in the assay with SKOV-3 cells, the “effect on tracer uptake in SKOV-3 cells” value is given as “reduced tracer uptake”. Besides, the “effect on HER2 expression in tumors” value in the assay on HER2 [2] was “reduced HER2 expression”. Moreover, in the assay on SKOV-3 xenografts (3 doses of 50 mg/kg NVP-AUY922), the “effect on tracer uptake in vivo” value is “decreased tracer uptake”. Further, the “AUC0_60 of [18F]GE-226 after drug” value with SKOV-3 xenografts (three daily doses of 50 mg/kg NVP-AUY922, vehicle 618.4±90.1, P=0.043) was determined as 446.7±42.8 % ID/mL*min. Further, the “NUV60 of [18F]GE-226 after drug” value in the assay with SKOV-3 xenografts (three daily doses of 50 mg/kg NVP-AUY922 i.p., vehicle 13.5±2.1) was 9.0±0.9 % ID/mL. Besides, the “effect on HER2 protein expression” value in the assay on HER2 [3] is listed as “dose-dependent HER2 degradation; also recorded: dose-dependent decrease of HER2 protein expression”.
For “fluorescein-GE-226: GE-226[SEQ ID NO 1] labeled with fluorescein”, in the assay with A431 tumors, the “fluorescent staining” value was “negligible”. Moreover, the “localization of fluorescent staining versus HER2” value with NCI-N87 tumors is “co-localized with regions that are HER2 positive”; with NCI-N87 tumors (listed as fluorescently labeled tracer analogue) it was “co-localized with HER2 expression at the cellular level”.

The record behind these values is patent US10646600B2, “HER2 polypeptides useful for imaging and monitoring tumors and cancers” (GE HEALTHCARE LIMITED, priority 2013, dated 2020).
